Results published in patent publication US9662372B2 (priority 2013, dated 2017).
Where a SMILES comes first, the peptide text is derived from it.

target: Shiga toxin 1 (UniProt P08026+P69178); assay: not given; conditions: not given
Sequence (P08026 23-315 limits assumed): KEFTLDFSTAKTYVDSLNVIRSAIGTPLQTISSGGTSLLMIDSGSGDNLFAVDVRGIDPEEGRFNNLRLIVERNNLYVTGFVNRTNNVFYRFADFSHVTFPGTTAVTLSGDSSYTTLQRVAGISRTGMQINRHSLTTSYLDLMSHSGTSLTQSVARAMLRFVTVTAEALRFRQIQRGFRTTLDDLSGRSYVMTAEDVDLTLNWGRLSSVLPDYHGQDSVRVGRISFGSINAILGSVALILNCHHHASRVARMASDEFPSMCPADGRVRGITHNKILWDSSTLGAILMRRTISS
Sequence (P69178 21-89 limits assumed): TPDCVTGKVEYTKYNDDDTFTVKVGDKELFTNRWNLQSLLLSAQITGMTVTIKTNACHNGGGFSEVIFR

Compound	Toxin inactivation
protamine	did not inactivate

target: Shiga toxin 2 (Escherichia phage 933W, UniProt P09385+P09386); assay: not given; conditions: not given
Sequence (P09385 23-319 limits assumed): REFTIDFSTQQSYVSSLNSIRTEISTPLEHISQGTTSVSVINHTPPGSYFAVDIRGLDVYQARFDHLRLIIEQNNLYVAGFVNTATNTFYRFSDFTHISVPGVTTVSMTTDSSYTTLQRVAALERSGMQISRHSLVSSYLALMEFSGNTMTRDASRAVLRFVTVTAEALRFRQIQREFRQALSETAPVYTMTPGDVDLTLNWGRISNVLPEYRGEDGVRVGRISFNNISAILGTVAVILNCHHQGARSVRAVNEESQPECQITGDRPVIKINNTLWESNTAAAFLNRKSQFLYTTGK
Sequence (P09386 20-89 limits assumed): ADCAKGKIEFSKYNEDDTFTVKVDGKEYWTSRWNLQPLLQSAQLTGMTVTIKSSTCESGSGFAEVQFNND

Compound	Toxin inactivation
protamine	did not inactivate

test system: crude toxin preparation from E. coli O157; assay: not given; assay type: cell-based, Escherichia coli O157; conditions: not given

Compound	Toxin inactivation
protamine	did not inactivate

test system: crude toxin preparation from C. sordellii; assay: not given; assay type: cell-based; conditions: not given

Compound	Toxin inactivation
protamine	did not inactivate

target: Clostridium difficile Toxin B (Clostridium difficile) (UniProt P18177); assay: not given; conditions: not given

Compound	concentration at which significant toxin inactivation begins [µg/mL]
poly-D-lysine (peptide)	1
poly-L-lysine (peptide)	1

target: T1, Clostridium difficile Toxin B (Clostridioides difficile, UniProt P18177); assay: Toxin B inactivation, CHO-k1 microwell dye reduction assay; assay type: cell-based; conditions: 50 ng/ml C. difficile Toxin B
T1 construct: purchased List Biological Laboratory (Listlab, Campbell, Calif., USA)
T1 sequence (P18177 whole entry): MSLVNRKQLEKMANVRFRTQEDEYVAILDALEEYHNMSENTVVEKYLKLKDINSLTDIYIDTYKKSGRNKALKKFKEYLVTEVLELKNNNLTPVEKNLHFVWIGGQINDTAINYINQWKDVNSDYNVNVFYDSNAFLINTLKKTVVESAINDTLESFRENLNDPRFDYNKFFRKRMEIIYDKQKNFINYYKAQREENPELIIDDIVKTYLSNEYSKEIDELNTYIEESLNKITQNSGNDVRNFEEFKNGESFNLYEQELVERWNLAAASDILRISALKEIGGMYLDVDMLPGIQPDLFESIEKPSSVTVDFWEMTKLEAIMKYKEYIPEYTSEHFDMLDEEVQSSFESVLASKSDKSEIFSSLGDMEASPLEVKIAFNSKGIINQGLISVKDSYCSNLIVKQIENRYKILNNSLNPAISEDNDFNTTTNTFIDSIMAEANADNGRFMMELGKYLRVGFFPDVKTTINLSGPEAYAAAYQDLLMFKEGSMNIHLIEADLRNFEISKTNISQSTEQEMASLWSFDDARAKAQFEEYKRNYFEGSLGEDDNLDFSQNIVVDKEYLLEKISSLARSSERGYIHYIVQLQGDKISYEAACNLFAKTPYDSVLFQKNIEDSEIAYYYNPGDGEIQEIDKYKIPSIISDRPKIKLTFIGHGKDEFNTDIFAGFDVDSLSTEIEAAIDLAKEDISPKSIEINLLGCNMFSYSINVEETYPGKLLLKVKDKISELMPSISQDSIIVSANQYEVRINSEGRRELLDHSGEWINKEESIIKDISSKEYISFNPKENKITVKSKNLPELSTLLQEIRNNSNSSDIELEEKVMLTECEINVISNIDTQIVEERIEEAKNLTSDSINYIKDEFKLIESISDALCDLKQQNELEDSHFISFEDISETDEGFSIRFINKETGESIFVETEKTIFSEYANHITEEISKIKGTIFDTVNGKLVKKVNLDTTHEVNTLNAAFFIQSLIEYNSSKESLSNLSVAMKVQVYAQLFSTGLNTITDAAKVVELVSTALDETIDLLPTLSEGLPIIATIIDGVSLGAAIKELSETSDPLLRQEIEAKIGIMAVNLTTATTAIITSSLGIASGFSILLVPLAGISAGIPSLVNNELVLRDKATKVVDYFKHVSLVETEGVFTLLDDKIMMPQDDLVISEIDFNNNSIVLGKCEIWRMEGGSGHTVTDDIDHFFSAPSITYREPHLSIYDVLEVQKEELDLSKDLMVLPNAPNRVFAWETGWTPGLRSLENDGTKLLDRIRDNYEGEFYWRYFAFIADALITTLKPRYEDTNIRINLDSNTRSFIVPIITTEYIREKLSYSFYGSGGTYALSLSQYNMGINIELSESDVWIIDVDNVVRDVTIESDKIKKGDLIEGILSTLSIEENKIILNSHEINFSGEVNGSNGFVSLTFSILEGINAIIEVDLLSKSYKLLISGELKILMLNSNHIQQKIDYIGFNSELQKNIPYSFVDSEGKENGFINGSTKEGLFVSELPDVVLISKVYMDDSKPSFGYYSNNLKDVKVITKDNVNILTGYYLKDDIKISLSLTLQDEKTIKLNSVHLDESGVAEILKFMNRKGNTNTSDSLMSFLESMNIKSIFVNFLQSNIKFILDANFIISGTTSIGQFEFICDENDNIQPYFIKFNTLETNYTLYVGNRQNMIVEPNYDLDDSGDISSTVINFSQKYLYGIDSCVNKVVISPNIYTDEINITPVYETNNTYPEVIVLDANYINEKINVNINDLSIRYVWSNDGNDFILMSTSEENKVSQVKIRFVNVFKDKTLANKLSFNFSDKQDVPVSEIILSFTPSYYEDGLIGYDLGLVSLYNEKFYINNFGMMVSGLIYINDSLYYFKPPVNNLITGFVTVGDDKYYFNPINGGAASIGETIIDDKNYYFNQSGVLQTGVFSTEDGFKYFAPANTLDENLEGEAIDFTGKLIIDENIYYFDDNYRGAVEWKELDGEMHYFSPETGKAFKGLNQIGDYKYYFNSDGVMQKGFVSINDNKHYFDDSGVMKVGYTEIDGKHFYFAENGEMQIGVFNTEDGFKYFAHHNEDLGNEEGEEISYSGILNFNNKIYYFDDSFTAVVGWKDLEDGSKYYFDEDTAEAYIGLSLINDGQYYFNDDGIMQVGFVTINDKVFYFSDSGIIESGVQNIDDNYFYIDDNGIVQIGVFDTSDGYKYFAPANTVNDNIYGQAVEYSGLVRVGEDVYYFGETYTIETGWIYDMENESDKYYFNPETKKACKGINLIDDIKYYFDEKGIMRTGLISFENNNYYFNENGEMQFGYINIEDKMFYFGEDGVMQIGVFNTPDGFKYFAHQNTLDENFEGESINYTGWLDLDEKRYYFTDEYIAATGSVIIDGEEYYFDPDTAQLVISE

Compound	Toxin B inactivation
poly-D-lysine	effectively inactivates
poly-L-lysine	effectively inactivates

same assay, conditions: 50 ng/ml C. difficile Toxin B, dose response 0.042-42.5 ug/ml

Compound	Concentration at which significant toxin inactivation begins
polylysine	approximately 1 ug/ml

same assay, conditions: at all tested concentrations; toxin B at high level

Compound	Reduction of measured toxin B
protamine	dramatically reduce
polyarginine	dramatically reduce

same assay, conditions: at the lowest concentration of 0.03 μM; toxin B 1.2-100 ng/ml

Compound	Toxin B inactivation
protamine	completely inactivated
polyarginine	completely inactivated

same assay, conditions: double dilution experiment, FIG. 4

Compound	Optimal concentration against toxin B [µM]
protamine	0.26

test system: crude toxin preparation from C. perfringens; assay: not given; assay type: cell-based; conditions: not given

Compound	Toxin inactivation
protamine	did not inactivate

test system: C. difficile ATCC 9689; assay: Bacterial mass in wells of PM panels (OD 750 nm); assay type: cell-based, Clostridium difficile; conditions: OD difference with vs without C. difficile, 72 h; carbon source (PM01/PM02)

Compound	C. difficile Mass
Gly-Asp	0.1004 OD (750 nm)
Ala-Gly	0.0934 OD (750 nm)
NCCO [2-Aminoethanol]	0.0853 OD (750 nm)

same assay, conditions: OD difference with vs without C. difficile, 72 h; nitrogen source (PM03/06/07/08)

Compound	C. difficile Mass
Gly-Gly-Ile	0.0421 OD (750 nm)
CC(C)CC(N)C(=O)NC(CC(C)C)C(=O)NC(CC(C)C)C(=O)O (stereo not drawn) [Leu-Leu-Leu] (H-Leu-Leu-Leu-OH; configuration not given here)	0.0463 OD (750 nm)
Leu-Trp	0.0380 OD (750 nm)
NO [Hydroxylamine]	0.0228 OD (750 nm)
Gly-Trp	0.0431 OD (750 nm)
NCCCCC(=O)O [δ-Amino-N-Valeric acid]	0.0424 OD (750 nm)
Arg-Arg	0.0435 OD (750 nm)
Arg-Trp	0.0499 OD (750 nm)
Gly-Ser	0.0471 OD (750 nm)
CSCCC(NC(=O)C(N)CC(C)C)C(=O)O (stereo not drawn) [Leu-Met] (H-Leu-Met-OH; configuration not given here)	0.0501 OD (750 nm)
Val-Glu	0.0481 OD (750 nm)
CCCCN [N-Butylamine]	0.0407 OD (750 nm)
Ala-Pro	0.0507 OD (750 nm)
Tyr-Phe	0.0559 OD (750 nm)
O=NO [Nitrite]	0.0333 OD (750 nm)
Gly-D-Thr	0.0549 OD (750 nm)
Val-Asp	0.0469 OD (750 nm)
Lys-Glu	0.0425 OD (750 nm)
Pro-Hyp	0.045 OD (750 nm)
Leu-Asn	0.0482 OD (750 nm)
Gly-D-Asp	0.0467 OD (750 nm)
Lys-Gly	0.047 OD (750 nm)
Gly-Gly-Gly	0.0456 OD (750 nm)
His-Leu	0.0495 OD (750 nm)
CCC(C)C(NC(=O)C(N)CC(C)C)C(=O)O (stereo not drawn) [Leu-Ile] (H-Leu-Ile-OH; configuration not given here)	0.0523 OD (750 nm)
Arg-Ser	0.0448 OD (750 nm)
CC(O)C(N)=O (racemic) [D,L-Lactamide]	0.04 OD (750 nm)
Gly-Gly-Leu	0.0305 OD (750 nm)

test system: C. difficile ATCC 9689; assay: not given; assay type: cell-based, Clostridium difficile; conditions: not given

Compound	Toxin [ng/mL]	Effect on toxin production (in words)
Gly-Gly-Ile	<0.122	
CC(C)CC(N)C(=O)NC(CC(C)C)C(=O)NC(CC(C)C)C(=O)O (stereo not drawn) [Leu-Leu-Leu] (H-Leu-Leu-Leu-OH; configuration not given here)	<0.122	toxin production inhibitor
Leu-Trp	<0.122	toxin production inhibitor
NO [Hydroxylamine]	334	
Gly-Trp	3632	
NCCCCC(=O)O [δ-Amino-N-Valeric acid]	435	
Arg-Arg	8229	
Arg-Trp	8423	
Gly-Ser	<0.122	
CSCCC(NC(=O)C(N)CC(C)C)C(=O)O (stereo not drawn) [Leu-Met] (H-Leu-Met-OH; configuration not given here)	<0.122	toxin production inhibitor
Val-Glu	178	
Gly-Asp	1507	
CCCCN [N-Butylamine]	5679	
Ala-Pro	<0.122	
Tyr-Phe	<0.122	
O=NO [Nitrite]	383	

Compound	Toxin [ng/mL]	Effect on toxin production (in words)
Gly-D-Thr	157	
Val-Asp	225	
Lys-Glu	271	
Pro-Hyp	7523	
Leu-Asn	381	
Gly-D-Asp	1537	
Lys-Gly	1950	
Gly-Gly-Gly	1811	
His-Leu	376	
CCC(C)C(NC(=O)C(N)CC(C)C)C(=O)O (stereo not drawn) [Leu-Ile] (H-Leu-Ile-OH; configuration not given here)	<0.122	toxin production inhibitor
Arg-Ser	7608	
CC(O)C(N)=O (racemic) [D,L-Lactamide]	2859	
Gly-Gly-Leu	215	
Ala-Gly	2130	
NCCO [2-Aminoethanol]	173	

test system: crude toxin preparation from B. cerus; assay: not given; assay type: cell-based, Bacillus cereus; conditions: not given

Compound	Toxin inactivation
protamine	did not inactivate
